Laboratory results reported in ChEMBL document CHEMBL1201862, “PubChem BioAssay data set” (2004).
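Interpolation was linear, between the two tested concentrations surrounding the appropriate level; five concentrations were tested over 48 hours in 96-well plates. At the GI50, growth is halved.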 Calls of active or inactive are those of the source. Cut-off read from the data, not from the text of the source: active = GI50 up to about 1.1 µM and inactive = higher.

Experiments:
Assay in all cases: NCI tumour cell line growth inhibition, 48 h
LOX IMVI = tested on: LOX IMVI
KM12 = tested on: KM12
HL-60 = tested on: HL-60
HCT-15 = tested on: HCT-15
SF-539 = tested on: SF-539
SK-MEL-28 = tested on: SK-MEL-28
A549 = tested on: A549
HCC 2998 = tested on: HCC 2998
HT-29 = tested on: HT-29
SW-620 = tested on: SW-620
HOP-92 = tested on: HOP-92
UACC-257 = tested on: UACC-257
MDA-MB-231 = tested on: MDA-MB-231
NCI/ADR-RES = tested on: NCI/ADR-RES
SF-295 = tested on: SF-295
DU-145 = tested on: DU-145
EKVX = tested on: EKVX
SK-MEL-5 = tested on: SK-MEL-5
SK-MEL-2 = tested on: SK-MEL-2

Nc1nc(N)c2nnn(C[C@H]3CC[C@@H](CO)C3)c2n1
GI50 (LOX IMVI): > 100 µM (inactive)
GI50 (KM12): > 100 µM (inactive)
GI50 (HL-60): > 100 µM (inactive)
GI50 (HCT-15): > 100 µM
GI50 (SF-539): > 100 µM (inactive)
GI50 (SK-MEL-28): > 100 µM (inactive)
GI50 (A549): > 100 µM (inactive)
GI50 (HCC 2998): > 100 µM (inactive)
GI50 (HT-29): > 100 µM (inactive)
GI50 (SW-620): > 100 µM (inactive)
GI50 (HOP-92): > 100 µM (inactive)
GI50 (UACC-257): > 100 µM (inactive)
GI50 (MDA-MB-231): > 100 µM (inactive)
GI50 (NCI/ADR-RES): > 100 µM (inactive)
GI50 (SF-295): > 100 µM (inactive)
GI50 (DU-145): > 100 µM (inactive)
GI50 (EKVX): > 100 µM (inactive)

CC(C)C(/C=C/c1ccc(Cl)c(Cl)c1)=N\NC(=O)N/N=C(/C=C/c1ccc(Cl)c(Cl)c1)C(C)C
GI50 (LOX IMVI): > 100 µM (inactive)
GI50 (KM12): > 100 µM (inactive)
GI50 (HL-60): 80 µM (inactive)
GI50 (HCT-15): > 100 µM
GI50 (SF-539): > 100 µM (inactive)
GI50 (SK-MEL-28): > 100 µM (inactive)
GI50 (SK-MEL-5): > 100 µM (inactive)
GI50 (HCC 2998): > 100 µM (inactive)
GI50 (HT-29): > 100 µM (inactive)
GI50 (SW-620): > 100 µM (inactive)
GI50 (HOP-92): > 100 µM (inactive)
GI50 (UACC-257): > 100 µM (inactive)
GI50 (MDA-MB-231): > 100 µM (inactive)
GI50 (NCI/ADR-RES): > 100 µM (inactive)
GI50 (SF-295): > 100 µM (inactive)
GI50 (DU-145): > 100 µM (inactive)
GI50 (EKVX): > 100 µM (inactive)

NC(C(=O)O)C(N)C(=O)O (configuration not stated)
GI50 (SK-MEL-2): > 100 µM (inactive)
GI50 (LOX IMVI): > 100 µM (inactive)
GI50 (KM12): > 100 µM (inactive)
GI50 (HL-60): > 100 µM (inactive)
GI50 (HCT-15): > 100 µM
GI50 (SF-539): > 100 µM (inactive)
GI50 (SK-MEL-28): > 100 µM (inactive)
GI50 (A549): > 100 µM (inactive)
GI50 (SK-MEL-5): > 100 µM (inactive)
GI50 (HT-29): > 100 µM (inactive)
GI50 (SW-620): > 100 µM (inactive)
GI50 (HOP-92): > 100 µM (inactive)
GI50 (UACC-257): > 100 µM (inactive)
GI50 (MDA-MB-231): > 100 µM (inactive)
GI50 (NCI/ADR-RES): > 100 µM (inactive)
GI50 (SF-295): > 100 µM (inactive)
GI50 (DU-145): > 100 µM (inactive)
GI50 (EKVX): > 100 µM (inactive)

CN(C)CCNC1=CC(=O)c2nc3ccccc3c3ccnc1c23
GI50 (SK-MEL-2): 7.38 µM (inactive)
GI50 (LOX IMVI): 2.04 µM (inactive)
GI50 (KM12): 3.34 µM (inactive)
GI50 (HL-60): 3.83 µM (inactive)
GI50 (HCT-15): 3.23 µM
GI50 (SF-539): 3.98 µM (inactive)
GI50 (SK-MEL-28): 11.4 µM (inactive)
GI50 (A549): 4.52 µM (inactive)
GI50 (HCC 2998): 4.47 µM (inactive)
GI50 (HT-29): 2.58 µM (inactive)
GI50 (SW-620): 4.42 µM (inactive)
GI50 (HOP-92): 11.7 µM (inactive)
GI50 (UACC-257): 9.62 µM (inactive)
GI50 (MDA-MB-231): 3.63 µM (inactive)
GI50 (NCI/ADR-RES): 4.13 µM (inactive)
GI50 (SF-295): 4.47 µM (inactive)
GI50 (DU-145): 8.2 µM (inactive)
GI50 (EKVX): 2.94 µM (inactive)

CC1(C)OCC2(CO1)CSCCCSCC1(COC(C)(C)OC1)CSCCCSC2
GI50 (LOX IMVI): > 100 µM (inactive)
GI50 (KM12): > 100 µM (inactive)
GI50 (HL-60): > 100 µM (inactive)
GI50 (HCT-15): > 100 µM
GI50 (SF-539): > 100 µM (inactive)
GI50 (SK-MEL-28): > 100 µM (inactive)
GI50 (A549): > 100 µM (inactive)
GI50 (SK-MEL-5): > 100 µM (inactive)
GI50 (HCC 2998): > 100 µM (inactive)
GI50 (HT-29): > 100 µM (inactive)
GI50 (SW-620): > 100 µM (inactive)
GI50 (HOP-92): > 100 µM (inactive)
GI50 (UACC-257): > 100 µM (inactive)
GI50 (MDA-MB-231): > 100 µM (inactive)
GI50 (NCI/ADR-RES): > 100 µM (inactive)
GI50 (SF-295): > 100 µM (inactive)
GI50 (DU-145): > 100 µM (inactive)
GI50 (EKVX): > 100 µM (inactive)

Cn1cnc([N+](=O)[O-])c1Sc1nc(N)nc2c1ncn2Cc1ccccc1
GI50 (SK-MEL-2): 15.8 µM (inactive)
GI50 (LOX IMVI): 19.6 µM (inactive)
GI50 (KM12): 30 µM (inactive)
GI50 (HL-60): 18.9 µM (inactive)
GI50 (HCT-15): 18 µM
GI50 (SK-MEL-28): 20.5 µM (inactive)
GI50 (A549): 25.5 µM (inactive)
GI50 (SK-MEL-5): 19 µM (inactive)
GI50 (HCC 2998): 15.9 µM (inactive)
GI50 (HT-29): 22.5 µM (inactive)
GI50 (SW-620): 22.9 µM (inactive)
GI50 (HOP-92): 12 µM (inactive)
GI50 (UACC-257): 14.3 µM (inactive)
GI50 (MDA-MB-231): 19.7 µM (inactive)
GI50 (NCI/ADR-RES): 51.9 µM (inactive)
GI50 (SF-295): 44.9 µM (inactive)
GI50 (DU-145): 20.8 µM (inactive)
GI50 (EKVX): 11.5 µM (inactive)

COC(=O)C(CCSC)NC(=O)Cc1ccc(C(=O)c2ccccc2)cc1 (configuration not stated)
GI50 (SK-MEL-2): 48.6 µM (inactive)
GI50 (LOX IMVI): 55.7 µM (inactive)
GI50 (KM12): 25.9 µM (inactive)
GI50 (HL-60): 32.7 µM (inactive)
GI50 (HCT-15): 36.1 µM
GI50 (SK-MEL-28): > 100 µM (inactive)
GI50 (A549): 38.4 µM (inactive)
GI50 (SK-MEL-5): 32.5 µM (inactive)
GI50 (HCC 2998): > 100 µM (inactive)
GI50 (HT-29): 25.8 µM (inactive)
GI50 (SW-620): 42.4 µM (inactive)
GI50 (HOP-92): 41.8 µM (inactive)
GI50 (UACC-257): > 100 µM (inactive)
GI50 (MDA-MB-231): 37.3 µM (inactive)
GI50 (NCI/ADR-RES): 26.7 µM (inactive)
GI50 (SF-295): 42.5 µM (inactive)
GI50 (DU-145): 86.9 µM (inactive)
GI50 (EKVX): 39.2 µM (inactive)

CCOc1cc(NC(C)=O)ccc1C(=O)NN1C(=O)C(Oc2ccccc2)C1c1ccc(O)c(OC)c1 (configuration not stated)
GI50 (SK-MEL-2): 26.9 µM (inactive)
GI50 (LOX IMVI): 29.8 µM (inactive)
GI50 (KM12): 39.1 µM (inactive)
GI50 (HL-60): 19.8 µM (inactive)
GI50 (HCT-15): 32.8 µM
GI50 (SF-539): 28.1 µM (inactive)
GI50 (SK-MEL-28): 79.4 µM (inactive)
GI50 (A549): 56.5 µM (inactive)
GI50 (SK-MEL-5): 19.1 µM (inactive)
GI50 (HT-29): 36.7 µM (inactive)
GI50 (SW-620): 77.4 µM (inactive)
GI50 (HOP-92): 6.04 µM (inactive)
GI50 (UACC-257): 47 µM (inactive)
GI50 (MDA-MB-231): 34 µM (inactive)
GI50 (NCI/ADR-RES): 37.4 µM (inactive)
GI50 (SF-295): 66.4 µM (inactive)
GI50 (DU-145): 78 µM (inactive)
GI50 (EKVX): 35.3 µM (inactive)
